Values of other authors as cited in the PKSmart pharmacokinetics tables (Seal et al. 2025).

Experiment: Lombardo, Berellini, Obach 2018, Drug Metab Dispos 46:1466, doi 10.1124/dmd.118.082966
Conditions: human; for MRT / Vd / clearance / half-life: in vivo, iv; for fraction unbound: plasma

SMILES | MRT | Vd | clearance | half-life | fraction unbound
CC[C@@H](CO)NC(=O)C1C=C2c3cccc4[nH]cc(c34)C[C@H]2N(C)C1 (stereo not given in full) | 2.25 h | 0.96 L/kg | 7.18 mL/min/kg | 1.85 h | 
Cc1[nH]c(=O)c(C#N)cc1-c1ccc2nccn2c1 | 0.97 h | 0.64 L/kg | 11 mL/min/kg | 1.13 h | 
CC(=O)O[C@H]1C[C@]2(O)[C@H]3CC[C@H]4C[C@H](O[C@H]5C[C@@H](O)[C@@H](O[C@H]6C[C@@H](O)[C@@H](O[C@H]7C[C@@H](O)[C@@H](O)[C@H](C)O7)[C@H](C)O6)[C@H](C)O5)CC[C@@]4(C)[C@H]3CC[C@]2(C)[C@H]1C1=CC(=O)OC1 | 72.3 h | 0.78 L/kg | 8.7 mL/min/kg | 51.6 h | 0.07
Cc1ncc([N+](=O)[O-])n1C[C@H](O)CCl | 18.1 h | 1.16 L/kg | 1.08 mL/min/kg | 12 h | 0.88
CN(C)c1cc(NC(=O)CNC(C)(C)C)c(O)c2c1C[C@H]1C[C@H]3[C@H](N(C)C)C(O)=C(C(N)=O)C(=O)[C@@]3(O)C(O)=C1C2=O | 53 h | 12 L/kg | 3.8 mL/min/kg | 48 h | 0.2
C[C@H](CCc1ccc(O)cc1)NCCc1ccc(O)c(O)c1 |  |  | 115 mL/min/kg |  | 
Nc1nc(=O)c2ncn(CCC(CO)CO)c2[nH]1 | 2.4 h | 1.1 L/kg | 8.4 mL/min/kg | 2.1 h | 
O=C(NC1CCN(CCCCC2(C(=O)NCC(F)(F)F)c3ccccc3-c3ccccc32)CC1)c1ccccc1-c1ccc(C(F)(F)F)cc1 | 31.2 h | 16.3 L/kg | 8.7 mL/min/kg | 39.7 h | 0.002
O=C1c2c(c3c4ccc(O)cc4n([C@@H]4O[C@H](CO)[C@@H](O)[C@H](O)[C@H]4O)c3c3[nH]c4cc(O)ccc4c23)C(=O)N1NC(CO)CO | 0.95 h | 1.45 L/kg | 25.3 mL/min/kg | 4.01 h | 
CN(C)[C@@H]1C(O)=C(C(N)=O)C(=O)[C@@]2(O)C(O)=C3C(=O)c4c(O)ccc(Cl)c4[C@@](C)(O)[C@H]3C[C@@H]12 | 7.4 h | 0.9 L/kg | 2 mL/min/kg | 7 h | 
Cc1c(-c2ccc(O)cc2)n(Cc2ccc(OCCN3CCCCCC3)cc2)c2ccc(O)cc12 |  |  |  |  | 0.02
CC(C)(S)C(N)C(=O)O (stereo not given) | 1.97 h | 1.26 L/kg | 10.7 mL/min/kg | 3.04 h | 0.12
O=C(N[C@H](CO)[C@H](O)c1ccc([N+](=O)[O-])cc1)C(Cl)Cl | 6.5 h | 0.94 L/kg | 2.4 mL/min/kg | 4.6 h | 
CN(C)Cc1c(C(=O)NCCOc2ccc(C(O)=NO)cc2)oc2ccccc12 | 2.65 h | 2.6 L/kg | 16.3 mL/min/kg | 5.9 h | 
OC(CCN1CCCC1)(c1ccccc1)C1CCCCC1 (stereo not given) | 14 h | 0.74 L/kg | 0.86 mL/min/kg | 12 h | 
Clc1ccc2nsnc2c1NC1=NCCN1 | 3.6 h | 2.4 L/kg | 11 mL/min/kg | 2.4 h | 
CN(C)C[C@H](c1ccc(O)cc1)C1(O)CCCCC1 | 11.8 h | 3.5 L/kg | 4.9 mL/min/kg | 8.4 h | 0.7
CC(C)(C)[N+](O)=Cc1ccc(S(=O)(=O)O)cc1S(=O)(=O)[O-] | 2.2 h | 0.18 L/kg | 1.35 mL/min/kg | 3.6 h | 0.6
COc1ccc(CCN(C)CCCN2Cc3cc(OC)c(OC)cc3C2=O)cc1OC | 2.62 h | 2.4 L/kg | 15.7 mL/min/kg | 2.04 h | 0.12
Cc1ccc(N(CC2=NCCN2)c2cccc(O)c2)cc1 |  |  | 42 mL/min/kg | 2.5 h | 

SMILES | MRT | Vd | clearance | half-life | fraction unbound
N=C(N)c1ccc(CNC(=O)C2CCN2C(=O)C(NCC(=O)O)C2CCCCC2)cc1 (stereo not given) | 2 h | 0.23 L/kg | 1.9 mL/min/kg | 1.6 h | 
CNS(=O)(=O)CCc1ccc2[nH]cc(C3CCN(C)CC3)c2c1 | 6.1 h | 2.4 L/kg | 6.6 mL/min/kg | 6.6 h | 
CC(C)N(CC[C@H](c1ccccc1)c1cc(CO)ccc1O)C(C)C |  | 2.41 L/kg |  |  | 0.5
O=c1[nH]cnc2[nH]ncc12 | 0.88 h | 0.58 L/kg |  |  | 
COC(=O)CC[C@@H]1N=C(c2ccccn2)c2cc(Br)ccc2-n2c(C)cnc21 | 0.5 h | 0.44 L/kg | 15 mL/min/kg | 0.75 h | 
CC(C)NC[C@@H](O)COc1cccc2c1N(C(=O)c1cccnc1)CCC2 | 3.1 h | 0.67 L/kg | 3.6 mL/min/kg | 12.4 h | 
CC[C@@H]([C@H](C)O)n1ncn(-c2ccc(N3CCN(c4ccc(OC[C@H]5CO[C@@](Cn6cncn6)(c6ccc(F)cc6F)C5)cc4)CC3)cc2)c1=O | 14.5 h | 3.8 L/kg | 4.3 mL/min/kg | 10.6 h | 0.013
CCOc1cc(Cc2cnc(N)nc2N)cc(OCC)c1-n1cccc1 |  | 2.5 L/kg | 3.5 mL/min/kg | 9.4 h | 0.12
CNC[C@H](O)CC12CCC(c3ccccc31)c1ccccc12 | 21.4 h | 18.8 L/kg | 14.6 mL/min/kg | 18.8 h | 
CCCc1c2oc(C(=O)O)cc(=O)c2cc2c(=O)cc(C(=O)O)n(CC)c12 | 0.7 h | 0.43 L/kg | 10.2 mL/min/kg | 0.9 h | 0.11
O=C(c1ccc(F)c(F)c1Nc1ccc(I)cc1F)N1CC(O)([C@@H]2CCCCN2)C1 | 96.6 h | 15.4 L/kg | 2.8 mL/min/kg | 68.8 h | 0.05
C=C1/C(=C\C=C2/CCC[C@]3(C)[C@@H]([C@H](C)CCCC(C)(C)O)CC[C@@H]23)C[C@@H](O)C[C@@H]1O | 13.3 h | 0.25 L/kg | 0.31 mL/min/kg | 11 h | 
CCOP(=O)(OCC)C(C)NC(=O)N(CCCl)N=O (stereo not given) | 0.55 h | 0.62 L/kg | 18.5 mL/min/kg | 0.38 h | 
NCCNc1ccc(NCCN)c2c1C(=O)c1ccncc1C2=O | 8.9 h | 10.1 L/kg | 17.7 mL/min/kg | 13.4 h | 
Cc1ccc(-n2nccn2)c(C(=O)N2CCN(c3nc4cc(Cl)ccc4o3)CC[C@H]2C)c1 | 13.8 h | 0.69 L/kg | 0.84 mL/min/kg | 10.4 h | 0.05
NCCCCC(NC1CCc2ccccc2N(CC(=O)O)C1=O)C(=O)O (stereo not given) | 29.3 h | 1.98 L/kg | 1.23 mL/min/kg |  | 
O=S(=O)(c1cccc2cnccc12)N1CCCNCC1 | 0.26 h | 1.22 L/kg |  |  | 
CCCC=c1ncc(=CC(Cc2cccs2)C(=O)O)n1Cc1ccc(C(=O)O)cc1 (stereo not given) | 1.5 h | 0.17 L/kg | 1.9 mL/min/kg | 2.1 h | 
O=C(Cn1cnnn1)NC1C(=O)N2C(C(=O)O)=C(CSc3nncs3)CS[C@H]12 (stereo not given in full) |  |  | 5.37 mL/min/kg | 0.64 h | 
O=c1[nH]c(=O)n([C@@H]2O[C@H](CO)[C@H](O)[C@H](O)[C@H]2O)cc1F | 3.95 h | 0.33 L/kg | 1.38 mL/min/kg | 4.21 h | 
